Assay results taken from PMC4198181, “Gold(I) Complexes of 9-Deazahypoxanthine as Selective Antitumor and Anti-Inflammatory Agents” (PLoS ONE, 2014).

Experiments:
[1] = tested on: A2780 ovarian carcinoma cells; assay: MTT in vitro cytotoxicity, A2780; type: cell-based, human; conditions: 24 h treatment, read-out: IC50±S.E., A2780
Experimental: (§1) In vitro cytotoxic activity was determined by the MTT assay in human breast adenocarcinoma (MCF7; ECACC no. 86012803), human osteosarcoma (HOS; ECACC no. 87070202), lung carcinoma (A549; ECACC no. 86012804), malignant melanoma (G361; ECACC no. 88030401), cervix epitheloid carcinoma (HeLa; ECACC no. 93021013), ovarian carcinoma (A2780; ECACC no. 93112519), cisplatin-resistant ovarian carcinoma (A2780R; […] ECACC no 105092802) cancer cell lines, purchased from European Collection of Cell Cultures (ECACC). […] The primary culture of human hepatocytes (HEP220, batch number HEP220819) was obtained from Biopredic International (France). The culture medium was Williams and HAM's F-12 (1∶1) supplemented with penicillin, streptomycin, ascorbic acid, linoleic acid, holo-transferin, ethanolamine, glucagon, insulin, dexamethasone, pyruvate, glucose, glutamine, amphotericin. The medium was enriched for plating with 2% foetal calf serum (v/v). The medium was exchanged for a serum-free medium the day after and the culture was stabilized for additional 24 h. Thereafter, the cells were ready for treatments. […] The MTT assay was performed spectrophotometrically at 540 nm (TECAN, Schoeller Instruments LLC). The cytotoxicity data were expressed as the percentage of viability, where 100% represented the treatments with vehicle (0.1% DMF or 0.1% DMSO). The cytotoxicity data from the cancer cell lines were acquired from three independent experiments (conducted in triplicate) using cells from different passages. The IC50 values were calculated from viability curves. The results are presented as arithmetic means±standard error of the mean (S.E.).

HOS osteosarcoma cells = assay: MTT in vitro cytotoxicity, HOS; type: cell-based, human; conditions: 24 h treatment, read-out: IC50±S.E., HOS
Experimental: as §1

[2] = tested on: A549 lung carcinoma cells; assay: MTT in vitro cytotoxicity, A549; type: cell-based, human; conditions: 24 h treatment, read-out: IC50±S.E., A549
Experimental: as §1

TNF-α mRNA = assay: TNF-α gene expression by RT-qPCR in LPS-stimulated THP-1 macrophages; type: cell-based, human; conditions: 300 nM, 2 h after LPS, normalised to β-actin
Experimental: For the determination of biological activity, we used the human monocytic leukaemia cell line THP-1 (ECACC, Salisbury, UK). The cells were cultivated at 37°C in the RPMI 1640 medium supplemented with 2 mM L-glutamine, 10% FBS, 100 U/mL of penicillin and 100 µg/mL of streptomycin in a humidified atmosphere containing 5% CO2. Stabilized cells (3rd–15th passage) were split into microtitration plates to get a concentration of 500 000 cells/mL and the differentiation to macrophages was induced by phorbol myristate acetate (PMA) dissolved in dimethyl sulfoxide (DMSO) at the final concentration of 50 ng/ml, and the cells were incubated for 24 h. In comparison with monocytes, differentiated macrophages tend to adhere to the bottoms of the cultivation plates. For next 24 h the cells were incubated with a fresh complete RPMI medium, i.e. containing antibiotics and FBS, without PMA. The medium was then aspirated, and the cells were washed with PBS and cultivated for next 24 hours in serum-free RPMI 1640 medium. These prepared macrophages were used for the detection of inflammatory response.
In the order to evaluate the expression of TNF-α, IL-1β, and β-actin mRNA, total RNA was isolated directly from the LPS-stimulated THP-1 cells. THP-1 macrophages were pretreated with compounds 2, 5, and Auranofin at the concentration of 300 nM or the vehicle (0.1% DMSO) only. After 1 h of the incubation, the inflammatory response was induced by LPS [except for the control cells (CTRL)]. After 2 h of the incubation with LPS, the medium was aspirated and the total RNA was isolated directly from the cells in cultivation plates using a RealTime Ready Cell Lysis Kit (Roche), according to the manufacturer's instructions.
The gene expression was quantified by two-step reverse-transcription quantitative (real-time) PCR (RT-qPCR). The reverse transcription step was performed by Transcriptor Universal cDNA Master using cell lysate as a template. […] The results were normalized to the amount of ROX reference dye, and the change in gene expression was determined by the 2^−ΔΔCT method. […]

[3] = tested on: IκB-α degradation (NF-κB signalling pathway); assay: LPS-induced IκB-α degradation (Western blot) in THP-1 macrophages; type: cell-based, human; conditions: 300 nM, 30 min after LPS
Experimental: Macrophage-like THP-1 cells were pretreated with the tested compounds and stimulated by LPS as was describe above. Thirty minutes after the addition of LPS, the medium was aspirated and cells were washed by cold phosphate buffer solution (PBS). Subsequently, the cells were collected using the lysis buffer [50 mM Tris-HCl pH 7.5, 1 mM EGTA, 1 mM EDTA, 1 mM sodium orthovanadate, 50 mM sodium fluoride, 5 mM sodium pyrophosphate, 270 mM sucrose, 0.1% (v/v) Triton X-100, and cOmplete Protease Inhibitor Cocktail (Roche, Germany)] and scraper. The lysis of cells was facilitated by a short (≈30 s) incubation in the ultrasonic water bath. The protein concentration was determined according to Bradford's method. For protein separation, 30 µg of protein was loaded onto the 12% polyacrylamide gel. […] The membranes were incubated with the primary anti-IκB-α antibody at the concentration ratio of 1∶500, or with the primary anti-β-actin at the concentration ration of 1∶5 000 at 4°C for 16 h. After washing, the secondary anti-mouse IgG antibody diluted 1∶2 000 was applied on the membranes and incubated at laboratory temperature (22°C) for 1 h. The amount of the bound secondary antibody was detected colorimetrically by an Opti-4CN Kit according to the manufacturer's manual.

[4] = tested on: G361 malignant melanoma cells; assay: MTT in vitro cytotoxicity, G361; type: cell-based, human; conditions: 24 h treatment, read-out: IC50±S.E., G361
Experimental: as §1

[5] = tested on: 22Rv1 prostate carcinoma cells; assay: MTT in vitro cytotoxicity, 22Rv1; type: cell-based, human; conditions: 24 h treatment, read-out: IC50±S.E., 22Rv1
Experimental: as §1

[6] = tested on: primary culture of human hepatocytes (HEP220); assay: MTT in vitro cytotoxicity, primary human hepatocytes; type: cell-based; conditions: for IC50: 24 h treatment, MTT, read-out: IC50±S.E., HEP220 (healthy human hepatocytes)
Experimental: as §1

SMILES	IC50 [1]	IC50 (HOS osteosarcoma cells)	IC50 [2]	effect on TNF-α mRNA transcription (TNF-α mRNA)	effect on LPS-induced IκB degradation [3]	IC50 [4]	IC50 [5]	IC50 [6]	times lower cytotoxicity against healthy human cells (HEP220) than cancer cell lines ([6]; complex 2: MCF7 vs. HEP220)
CC(C)Oc1ncnc2cc[n]([Au])c12.c1ccc(P(c2ccccc2)c2ccccc2)cc1 [complex 2, [Au(L2)(PPh3)]]	4 ± 0.2 µM	0.9 ± 0.2 µM	17.2 ± 0.7 µM	significantly reduce the transcription	block moderately the IκB degradation	3.4 ± 0.1 µM	4 ± 0.1 µM	18.5 ± 1.5 µM	~30 times
[Au][n]1ccc2ncnc(OCCc3ccccc3)c21.c1ccc(P(c2ccccc2)c2ccccc2)cc1 [complex 5]	4.4 ± 0.3 µM	2.9 ± 0.1 µM	18.3 ± 0.5 µM	significantly reduce the transcription	block moderately the IκB degradation	3.5 ± 0.2 µM	3.7 ± 0.1 µM	19 ± 1.8 µM	–
